23 compounds from patent publication US20240139185A1, “COMPOUNDS THAT PARTICIPATE IN COOPERATIVE BINDING AND USES THEREOF” (Revolution Medicines, Inc., priority 2018, published 2024) can be followed below.

In one assay the target is cyclophilin A (CYPA) (Homo sapiens, UniProt P62937). Put plainly: CYPA-compound binary complex formation by SPR. Particulars: read-out: CYPA Binding Affinity. The method in brief:
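CypA-Avi captured on a Biotin CAPture chip (4 μg/ml), reference flow cell subtracted. Compounds injected as 10-point 2-fold dilutions from 50 μM in HBS-P+ pH7.4 with 2% DMSO; 60 s association and 60 s dissociation, solvent-corrected. Affinity obtained by steady-state fitting.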
In general terms: Surface plasmon resonance follows binding to a sensor surface in real time, without labels.

The target of assay [1] is T1, BRAF-GTP-KRAS-G12C complex (Homo sapiens, UniProt P01116+P62937, G12C).
T1 construct: 50 nM of His6-KRas G12C-GTP (1-169); 500 nM of tagless CypA (1-165)
Put plainly: KRAS-BRAF complex disruption through competition with CYPA-compound by TR-FRET. Conditions: biochemical BRAF-KRAS G12C-GTP disruption assay EC50, with CYPA. The method in brief:
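His6-KRAS G12C-GTP (1-169, 50 nM) with tagless CypA (1-165, 500 nM) was incubated with compound for 3 h at room temperature in pH 7.3 Hepes/NaCl/MgCl2 buffer containing GST-BRAF RBD. Anti-His Eu (10 nM) and anti-GST APC (50 nM) were then added for 1.5 h, and the 665/615 nm TR-FRET ratio was read. EC50 from 4-parameter fit; for specificity, wild-type KRAS replaced G12C, and CypA was omitted to test presenter dependence.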
On the technique in general: TR-FRET usually uses a lanthanide donor and a delayed reading to cut background.

The next assay has as its system pERK in H358 cells. Put plainly: pERK inhibition in H358 cells. In kind it is cell-based, human. Particulars: read-out: Cellular pERK inhibition. As for the experimental part:
H358 cells (5500 cells) derived from a human lung cancer were plated in a 96 well plate in media (100 uL, RPMI with 10% FBS). After 24 hours, cells were treated for 4 hours with compound or DMSO. Cells were washed twice with room temperature TBS (200 uL) and fixed for 20 minutes with 4% paraformaldehyde diluted with TBS (150 uL). Cells were washed four times for five minutes with 0.1% TritonX/TBS (150 uL) to permeabilize the membrane. Cells were incubated with TBS blocking buffer (100 uL) at room temperature for 60 minutes. Primary antibody (Phospho-p44/42 MAPK (Erk1/2) (Thr202/Tyr204) (D13.14.4E) XP® Rabbit mAb #4370, Cell Signaling Technology; 1:200) was added, and the cells were incubated overnight at 4 C. The cells were washed four times for five minutes with 0.1% Tween 20/TBS (150 uL). Secondary antibody (IRDye® 800CW Goat-Anti-Rabbit IgG, Li-Cor Biosciences; 1:1000) and DRAQ5™ (Invitrogen; 1:2000) was added, and the cells were incubated for 1 hour at room temperature. The cells were washed four times for five minutes with 0.1% Tween 20/TBS (150 uL) and scanned using the LICOR (700 and 800 nm).

Setting [2] is: Homo sapiens, NCI-H358, 4 hours treatment.

Where two headings read alike, the source gives them in different places. Some results are limits rather than exact numbers.

Regarding `CC1COC(=O)[C@@H]2CCCN(N2)C(=O)[C@@H](NC(=O)[C@H](C(C)C)N(C)C(=O)C2CN(C(=O)CCl)C2)Cc2cc(O)cc(c2)-c2ccc3c(S(C)(=O)=O)cn(c3c2)C1` (single isomer, unassigned) [Compound 111], the Kd on cyclophilin A (CYPA) is 5 to 15 µM. Besides, the concentration giving a half-maximal response (EC50) – broadly, the concentration giving half of the maximal effect – in assay [1] was ≤ 0.5 µM. Moreover, the IC50 in the assay with pERK in H358 cells (4 hours treatment) is > 10 µM.
For `CC1COC(=O)[C@@H]2CCCN(N2)C(=O)[C@@H](NC(=O)[C@H](C(C)C)N(C)C(=O)C2CN(C(=O)CCl)C2)Cc2cc(O)cc(c2)-c2ccc3c(c2)N(CCO3)C1` (single isomer, unassigned) [Compound 183] the same measures were 5 to 15 µM, 0.5 to 5 µM and 1 to 10 µM.
Take `CC1COC(=O)[C@@H]2CCCN(N2)C(=O)[C@@H](NC(=O)[C@H](C(C)C)N(C)C(=O)C2CN(C(=O)CCl)C2)Cc2cc(O)cc(c2)-c2ccc3c(c2)N(CCO3)C1` (single isomer, unassigned) [Compound 184]: the Kd on cyclophilin A (CYPA) was ≤ 5 µM. The compound also showed a half-maximal effective concentration (EC50) in assay [1] of 0.5 to 5 µM. The IC50 with pERK in H358 cells (4 hours treatment) was > 10 µM.
For the compound `C=CC(=O)N1CCN([C@H](C(=O)N[C@H]2Cc3cc(O)cc(c3)-c3ccc4nc(C)n(c4c3)CC(C)(C)COC(=O)[C@@H]3CCCN(N3)C2=O)C(C)C)C1=O` [Compound 1, (2S)-2-(3-acryloyl-2-oxoimidazolidin-1-yl)-N-((6^3S,4S)-2^5-hydroxy-1^2,10,10-trimethyl-5,7-dioxo-6^1,6^2,6^3,6^4,6^5,6^6-hexahydro-1^1H-8-oxa-1(6,1)-benzo[d]imidazola-6(1,3)-pyridazina-2(1,3)-benzenacycloundecaphane-4-yl)-3-methylbutanamide], the Kd on cyclophilin A (CYPA) lay within 5 to 15 µM. For the same compound, the EC50 in assay [1] is ≤ 0.5 µM. Also, the IC50 in the assay with pERK in H358 cells (setting [2]) was > 10 µM.
For `CC(C)[C@@H](C(=O)N[C@H]1Cc2cc(O)cc(c2)-c2ccc3c(C#N)cn(c3c2)CC(C)(C)CNC(=O)[C@@H]2CCCN(N2)C1=O)N(C)C(=O)C1CN(C(=O)CCl)C1` [Compound 3, 1-(2-chloroacetyl)-N-((2S)-1-(((6^3S,4S)-1^3-cyano-2^5-hydroxy-10,10-dimethyl-5,7-dioxo-6^1,6^2,6^3,6^4,6^5,6^6-hexahydro-1^1H-8-aza-1(6,1)-indola-6(1,3)-pyridazina-2(1,3)-benzenacycloundecaphane-4-yl)amino)-3-methyl-1-oxobutan-2-yl)-N-methylazetidine-3-carboxamide] the same measures were ≤ 5 µM, ≤ 0.5 µM and > 10 µM.
As for `C=CC(=O)N1CCN(C(C(=O)NC2Cc3cc(O)cc(c3)-c3ccc4c(C(C)(C)C#N)cn(c4c3)CC(C)(C)COC(=O)C3CCCN(N3)C2=O)C(C)C)C(=O)C1` (stereo not drawn) [Compound 14], on cyclophilin A (CYPA), the Kd was > 15 µM. The half-maximal effective concentration (EC50) in assay [1] is > 5 µM. Further, the IC50 with pERK in H358 cells (4 hours treatment) was > 10 µM.
For `CC1COC(=O)C2CCCN(N2)C(=O)C(NC(=O)C(C(C)C)N(C)C(=O)C2CN(C(=O)C(C)Cl)C2)Cc2cc(O)cc(c2)-c2ccc3c(C(C)(C)C#N)cn(c3c2)C1` (stereo not drawn) [Compound 18] the same measures were > 15 µM, 0.5 to 5 µM and > 10 µM.
For `CC(C)[C@@H](C(=O)N[C@H]1Cc2cc(O)cc(c2)-c2ccc3c(C(C)(C)C#N)cn(c3c2)C[C@H](C)COC(=O)[C@@H]2CCCN(N2)C1=O)N1CC[C@@H](NC(=O)CCl)C1=O` [Compound 28], the Kd on cyclophilin A (CYPA) was ≤ 5 µM. Moreover, the EC50 in assay [1] fell in the range of 0.5 to 5 µM. Also, in the assay with pERK in H358 cells (4 hours treatment), the IC50 is > 10 µM.
For `CC(C)[C@@H](C(=O)N[C@H]1Cc2cc(O)cc(c2)-c2ccc3c(C(C)(C)C#N)cn(c3c2)C[C@H](C)COC(=O)[C@@H]2CCCN(N2)C1=O)N1CC[C@@H](N(C)C(=O)CCl)C1=O` [Compound 30] the same measures were ≤ 5 µM, 0.5 to 5 µM and 1 to 10 µM.
For `CC(C)C(C(=O)NC1Cc2cc(O)cc(c2)-c2ccc3c(C(C)(C)C#N)cn(c3c2)CC(C)(C)COC(=O)C2CCCN(N2)C1=O)N(C)C(=O)C1CCN(C(=O)CCl)C1` (stereo not drawn) [Compound 33], in that order: 5 to 15 µM, ≤ 0.5 µM and ≤ 1 µM.
For `CC(C)[C@@H](C(=O)N[C@H]1Cc2cc(O)cc(c2)-c2ccc3c(C(C)(C)C#N)cn(c3c2)CC(C)(C)COC(=O)[C@@H]2CCCN(N2)C1=O)N(C)C(=O)C1(F)CN(C(=O)[C@@H](C)Cl)C1` [Compound 35], in that order: 5 to 15 µM, > 5 µM and > 10 µM.
For `CC(C)[C@@H](C(=O)N[C@H]1Cc2cc(O)cc(c2)-c2ccc3c(C(C)(C)C#N)cn(c3c2)CC(CC#N)COC(=O)[C@@H]2CCCN(N2)C1=O)N(C)C(=O)C1CN(C(=O)CCl)C1` (stereo partly drawn) [Compound 39], the Kd at cyclophilin A (CYPA) lay in the range of 5 to 15 µM. Also, the EC50 in assay [1] is ≤ 0.5 µM. In addition, the IC50 with pERK in H358 cells (4 hours treatment) was > 10 µM.
For `C=CC(=O)N1CC2(CCN(C(C(=O)NC3Cc4cc(O)cc(c4)-c4ccc5c(C(C)(C)C#N)cn(c5c4)CC(C)(C)COC(=O)C4CCCN(N4)C3=O)C(C)C)C2=O)C1` (stereo not drawn) [Compound 42] the same measures were 5 to 15 µM, 0.5 to 5 µM and 1 to 10 µM.
For `CC(C)C(C(=O)NC1Cc2cc(O)cc(c2)-c2ccc3c(C(C)(C)C#N)cn(c3c2)CC(C)(C)COC(=O)C2CCCN(N2)C1=O)N1CCC2(CN(C(=O)CCl)C2)C1=O` (stereo not drawn) [Compound 44], in that order: 5 to 15 µM, ≤ 0.5 µM and 1 to 10 µM.
For `CC1COC(=O)C2CCCN(N2)C(=O)C(NC(=O)C(C(C)C)N(C)C(=O)C2CN(C(=O)CCl)C2)Cc2cc(O)cc(c2)-c2ccc3c(-c4cccc(C#N)c4)cn(c3c2)C1` (stereo not drawn) [Compound 46], in that order: 5 to 15 µM, ≤ 0.5 µM and ≤ 1 µM.
On to `COc1ccccc1-c1cn2c3cc(ccc13)-c1cc(O)cc(c1)CC(NC(=O)C(C(C)C)N(C)C(=O)C1CN(C(=O)CCl)C1)C(=O)N1CCCC(N1)C(=O)OCC(C)C2` (stereo not drawn) [Compound 48], for which the Kd at cyclophilin A (CYPA) lay within 5 to 15 µM. Also, in assay [1], the EC50 is ≤ 0.5 µM. Also, the IC50 in the assay with pERK in H358 cells (4 hours treatment) fell in the range of 1 to 10 µM.
As to `COc1ccc(-c2cn3c4cc(ccc24)-c2cc(O)cc(c2)C[C@H](NC(=O)[C@H](C(C)C)N(C)C(=O)C2CN(C(=O)CCl)C2)C(=O)N2CCC[C@H](N2)C(=O)OC[C@@H](C)C3)cc1` [Compound 50], the Kd at cyclophilin A (CYPA) fell in the range of 5 to 15 µM. Moreover, in assay [1], the concentration giving a half-maximal response (EC50) is ≤ 0.5 µM. Besides, the IC50 in the assay on pERK in H358 cells (4 hours treatment) was 1 to 10 µM.
As for `CC[C@@H](C(=O)N[C@H]1Cc2cc(O)cc(c2)-c2ccc3c(C(C)(C)C#N)cn(c3c2)CC(C)(C)COC(=O)[C@@H]2CCCN(N2)C1=O)N(C)C(=O)C1CN(C(=O)CCl)C1` [Compound 56], the Kd at cyclophilin A (CYPA) was > 15 µM. The 50% effective concentration (EC50) in assay [1] is ≤ 0.5 µM. For the same compound, the IC50 with pERK in H358 cells (4 hours treatment) is > 10 µM.
For `CN(C(=O)C1CN(C(=O)CCl)C1)[C@@H](CC1CC1)C(=O)N[C@H]1Cc2cc(O)cc(c2)-c2ccc3c(C(C)(C)C#N)cn(c3c2)CC(C)(C)COC(=O)[C@@H]2CCCN(N2)C1=O` [Compound 57], in that order: > 15 µM, ≤ 0.5 µM and 1 to 10 µM.
For `CC(C)[C@@H](C(=O)N[C@H]1Cc2cc(O)cc(n2)-c2ccc3c(C(C)(C)C#N)cn(c3c2)C[C@H](C)COC(=O)[C@@H]2CCCN(N2)C1=O)N(C)C(=O)C1CN(C(=O)CCl)C1` [Compound 59] the same measures were > 15 µM, > 5 µM and > 10 µM.
For `CC(C)[C@@H](C(=O)N[C@H]1Cc2cc(O)cc(n2)-c2ccc3c(C(C)(C)C#N)cn(c3c2)C[C@H](C)CNC(=O)[C@@H]2CCCN(N2)C1=O)N(C)C(=O)C1CN(C(=O)CCl)C1` [Compound 60] the same measures were 5 to 15 µM, > 5 µM and > 10 µM.
In the case of `CCN(C(=O)C1CN(C(=O)CCl)C1)[C@H](C(=O)N[C@H]1Cc2cc(O)cc(c2)-c2ccc3c(C(C)(C)C#N)cn(c3c2)CC(C)(C)COC(=O)[C@@H]2CCCN(N2)C1=O)C(C)C` [Compound 65], the Kd at cyclophilin A (CYPA) is > 15 µM. Also, the EC50 in assay [1] was ≤ 0.5 µM. In addition, the IC50 with pERK in H358 cells (4 hours treatment) lay in the range of 1 to 10 µM.
For `CC(C)[C@@H](C(=O)N[C@H]1Cc2cc(O)cc(c2)-c2ccc3c4cc(C#N)ccc4n(c3c2)CC(C)(C)COC(=O)[C@@H]2CCCN(N2)C1=O)N(C)C(=O)C1CN(C(=O)CCl)C1` [Compound 68], in that order: ≤ 5 µM, ≤ 0.5 µM and 1 to 10 µM.
